According to US12617745B2, “Curcusone diterpenoids and uses thereof” (Purdue Research Foundation, priority 2020, dated 2026):
Like-named read-outs stand apart in the source and are kept apart here. Peptide text beside a SMILES is read from it. * marks the point of attachment. Cbz = O=C(OCc1ccccc1)*

Legend:
MCF-7 cells = assay: Cytotoxicity in MCF-7 cells, WST-1 assay; type: cell-based, human; conditions: for IC50 / EC50 values against MCF-7 cells, in words / cytotoxicity / anticancer activity in MCF-7 cells, comparative statement / EC50: 24 h compound treatment, WST-1; for IC50: read-out: IC50 value / antiproliferation activity in MCF-7 cells; for EC50: read-out: EC50, viability of MCF-7 cells
From the text: The absorbance at 420 nm and 630 nm was then acquired using a BioTek Synergy H1 microplate reader. Cell viability results were plotted in GraphPad Prism 7.

BRAT1 [1] = molecular target: T1, BRAT1 (Homo sapiens, UniProt Q6PJG6); assay: BRAT1 protein level after 1d treatment (global proteomics, Western blot); type: cell-based; design: endogenous in cells; host or cells: HeLa, MCF-7, MDA-MB-231 (live cells or HeLa lysate); conditions: added for the final 4 hours of 1d treatment
T1 sequence (Q6PJG6 1-821): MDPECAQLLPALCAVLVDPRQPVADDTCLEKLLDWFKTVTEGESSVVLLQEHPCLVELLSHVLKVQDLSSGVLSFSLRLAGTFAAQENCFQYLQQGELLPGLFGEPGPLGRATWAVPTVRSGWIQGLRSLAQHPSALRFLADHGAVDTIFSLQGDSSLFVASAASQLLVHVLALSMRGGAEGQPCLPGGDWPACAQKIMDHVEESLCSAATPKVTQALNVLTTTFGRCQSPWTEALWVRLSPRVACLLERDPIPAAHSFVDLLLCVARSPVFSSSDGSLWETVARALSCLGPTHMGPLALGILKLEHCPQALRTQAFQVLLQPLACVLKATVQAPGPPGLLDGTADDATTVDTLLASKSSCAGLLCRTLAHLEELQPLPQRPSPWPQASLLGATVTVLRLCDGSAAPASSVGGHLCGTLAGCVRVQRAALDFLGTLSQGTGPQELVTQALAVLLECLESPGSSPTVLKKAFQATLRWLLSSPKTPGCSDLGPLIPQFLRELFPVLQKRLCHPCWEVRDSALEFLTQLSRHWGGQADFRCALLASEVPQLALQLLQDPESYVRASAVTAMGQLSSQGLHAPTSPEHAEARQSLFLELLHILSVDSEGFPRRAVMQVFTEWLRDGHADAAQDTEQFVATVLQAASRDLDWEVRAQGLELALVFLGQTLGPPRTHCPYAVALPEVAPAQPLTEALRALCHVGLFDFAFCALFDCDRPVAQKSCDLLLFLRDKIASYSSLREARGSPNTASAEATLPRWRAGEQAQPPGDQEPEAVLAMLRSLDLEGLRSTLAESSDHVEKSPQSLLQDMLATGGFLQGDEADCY

HeLa cells = assay: Global proteomics profiling using LC-MS/MS; type: cell-based, human; conditions: 3 μM, 24 h, among 3347 quantified proteins
BRAT1 [2] = molecular target: T1, BRAT1; assay: In situ dose response via competitive pulldown assay with probe 37; type: cell-based
Procedure: HeLa (2.0e6) cells were seeded in 60 mm dishes. […] The lysates were prepared and quantified as described above. Lysates (2 mg/mL, 140 μL) was treated with 10 μM 37 (50× stock in DMSO) for one hour at r.t. and then subjected to click chemistry with biotin azide as described above for one hour at r.t. Proteins were precipitated, re-solubilized in 0.2% SDS in PBS, enriched with 50 μL streptavidin beads, and washed as described above. Proteins were eluted using 30 μL SDS-PAGE reducing loading buffer (4×), subjected to 10 min heat denaturation (95° C.), separated using a 11% SDS-PAGE gel, and visualized via Western blotting as described above. Images were quantified with ImageJ. EC50 and Kitz-Wilson binding constants were calculated using GraphPad Prism 7.

BRAT1 [3] = molecular target: T1, BRAT1; assay: In situ competitive MS-based target identification; type: cell-based; conditions: MCF-7 cells, 30 μM 1d 4 hours, 10 μM 37
Procedure: MCF-7 (8e6) cells were seeded in 10 cm Petri dishes and incubated overnight. […] Lysate was prepared as described above. Lysate (2 mg/mL, 0.75 mL) was treated with 10 μM 37 (50× stock in DMSO) for one hour at r.t. and then subjected to click chemistry. […] (Click Chemistry Tools, 50 μM, 50× stock in DMSO), tris(2-carboxyethyl)phosphine hydrochloride (TCEP) (1 mM, Sigma-Aldrich C4706-2G, 50× fresh stock in water), tris[(1-benzyl-1H1,2,3-triazol-4-yl)methyl]amine (TBTA) (100 μM, Click Chemistry Tools, 16× stock in DMSO:tBuOH 1:4), and copper(II) sulfate (Sigma-Aldrich, 1 mM, 50× stock in water) were added to the proteome and left to react for one hour at r.t. […] Samples were analyzed by LC-MS/MS (see below) and the MS data was processed with MaxQuant (see below).
Peptides were resuspended in water with 0.1% formic acid (FA) and analyzed using EASY-nLC 1200 nano-UHPLC coupled to Q Exactive HF-X Quadrupole-Orbitrap mass spectrometer (Thermo Scientific). […]
The MS data was analyzed with MaxQuant9 (V1.6.1.0)^7 and searched against the human proteome (Uniprot) and a common list of contaminants (included in MaxQuant). […] The minimum peptide length was set to 6 amino acids and peptide re-quantification, label-free quantification (MaxLFQ) and “match between runs” were enabled. […]

[4] = test system: HeLa, MCF-7 and MDA-MB-231 cells; assay: Transwell migration assay; type: cell-based, human; conditions: 1 μM, 24 hours, all cell lines
FLAG-BRAT1 = molecular target: T2, FLAG-BRAT1 (Homo sapiens, UniProt Q6PJG6); assay: Thermal shift assay of FLAG-BRAT1 via Western blotting; type: binding; conditions: HEK-293T lysate, 30 μM, 34° C. to 61° C.
T2 construct: expressed in transfected cells; host or cells: HEK-293T, transient transfection, lysate
T2 sequence (Q6PJG6 1-821): T1 sequence (Q6PJG6 1-821)
Procedure: HEK-293T (8e6) cells were seeded in a 10 cm dish in DMEM without pen-strep. After incubating overnight, 24 μg of FLAG-BRAT1 pExp plasmid was incubated for 15 min at r.t. with 96 μL of PEI MAX™ 40K (Polysciences 24765-1) in final volume of 2 mL Opti-MEM (Gibco 11058021). The mixture was then carefully added to the cells. After 24 hours, the cells were carefully washed twice with PBS, and the lysate was prepared by sonication in PBS as described above.
The supernatant was carefully isolated. SDS-PAGE reducing loading buffer (4×) was added to the isolated supernatant, and proteins were transferred to a PVDF (0.2 μm) membrane using wet transfer with tris-glycine transfer buffer (20% methanol) for one hour at 350 mA. Membrane was blocked with 5% milk in tris-buffered saline with 0.1% Tween 20 (TBST) for 30-60 minutes at r.t. and then incubated with primary rabbit polyclonal BRAT1 antibody (Novus NB100-2256, 1:2000 in 5% milk in TBST) overnight shaking at 4° C. Membrane was washed three times for five min with TBST and incubated with anti-rabbit Alexa Fluor 647 (Jackson ImmunoResearch Inc., 1:500 in 5% milk in TBST) for one hour at r.t. Membrane was then washed 3× with TBST and visualized with an Azure Biosystems Sapphire Biomolecular Imager. […]

BRAT1 [5] = molecular target: T1, BRAT1; assay: In situ competitive pulldown assay via Western blotting; type: cell-based; design: endogenous in cells; host or cells: HeLa, MCF-7, MDA-MB-231 (live cells or HeLa lysate)
BRAT1 [6] = molecular target: T1, BRAT1; assay: Competitive BRAT1 pulldown with iodoacetamide (binding reversibility); design: endogenous in cells; host or cells: HeLa (HeLa lysate); conditions: HeLa lysate, IAA 30 mM 1 h pre- or posttreatment, 37 10 μM
Procedure: To evaluate the binding reversibility, we performed a competitive BRAT1 pulldown assay with the irreversible cysteine-reactive probe iodoacetamide (IAA). HeLa lysate was treated with 37 (10 μM) for 1 h with either pre- or posttreatment with IAA (30 mM) for 1 h followed by enrichment and Western blot analysis as described above.

Which IC50 (MCF-7 cells) does the source give for `C=C(C)[C@H]1CCC(=C)[C@@H]2[C@@H]1C=C(C)C(=O)[C@]21CC=C(C)C1=O` [compound 3, (+)-Spirocurcasone] here?
The IC50 was 62.7 µM.

With `C=C(C)C1CCC(=C)C2C3=C(C[C@H](C)C3=O)C(=O)C(C)=C[C@@H]12` (single isomer, unassigned; (-)) [1b, (−)-Curcusone B] as the compound, how does the “EC50 values against MCF-7 cells, in words” value (MCF-7 cells) read?
The value was “micromolar”.

What about the “cytotoxicity value of synthetic sample versus naturally isolated counterpart” value (MCF-7 cells; MCF-7 cells) of the same compound?
Its value is “virtually identical”.

With `CC(C)C[C@@H](C=O)NC(=O)[C@H](CC(C)C)NC(=O)[C@H](CC(C)C)NC(=O)OCc1ccccc1` [MG132] (Cbz-Leu-Leu-Leu-aldehyde) as the compound, how does the “BRAT1 protein levels with proteasome inhibitor” value (BRAT1 [1]) read?
The value was “recovered BRAT1 protein levels”.

How did the “cytotoxicity / anticancer activity in MCF-7 cells, comparative statement” value (MCF-7 cells) turn out when (−)-pyracurcasone [compound 33] was run?
The value was “slightly better antiproliferation activity”.

What about the IC50 (MCF-7 cells) of the same compound?
The IC50 was 8 µM.

How did the “cytotoxicity / anticancer activity in MCF-7 cells, comparative statement” value (MCF-7 cells) turn out when (−)-dimericursone A [2a] was run?
Its value is “no toxicity”.

What about the EC50 (MCF-7 cells) of the same compound?
The EC50 was over 100 µM.

How did the “number of down-regulated proteins” value (HeLa cells) turn out when `C=C(C)C1CCC(=C)C2C3=C(CC(C)(O)C3=O)C(=O)C(C)=CC12` (single isomer, unassigned; (-)) [1d, (−)-Curcusone D] was run?
Its value is 42.

And the “number of up-regulated proteins” value (HeLa cells)?
Its value is 36.

And the EC50 (BRAT1 [2]; in situ treatment of live HeLa cells, read-out: EC50, competition of BRAT1 enrichment by 37)?
The EC50 was 2700 nM.

And the “concentration at 50% fractional occupancy (f occ. (50)) of BRAT1” value (BRAT1 [2]; live HeLa cells, 4 h)?
The value was 2.7 µM.

What about the “EC50 values against MCF-7 cells, in words” value (MCF-7 cells) of the same compound?
Its value is “micromolar”.

What about the EC50 (MCF-7 cells; Homo sapiens, MCF7) of the same compound?
The EC50 was 13.8 µM.

What about the “protein competed from probe 37 enrichment” value (BRAT1 [3]) of the same compound?
Its value is “best competed target was BRAT1”.

And the “reduction of cell migration” value [4]?
The value was about 4 fold.

And the “thermal stability of FLAG-BRAT1” value (FLAG-BRAT1)?
The value was “thermal destabilization”.

What about the “competition of BRAT1 enrichment by 37” value (BRAT1 [5]; HeLa and MDA-MB-231 cells) of the same compound?
Its value is “competed the enrichment of BRAT1”.

What about the “competition of BRAT1 enrichment by 37” value (BRAT1 [5]; MCF-7 cells, 4 hours) of the same compound?
The value was “competed”.

`NC(=O)CI` [IAA, iodoacetamide] was tested. Which “competition of BRAT1 enrichment by 37” value (BRAT1 [6]) did it give?
The value was “competed BRAT1 enrichment by 37”.
